Experimental data reported in US20230192704A1, “MONOCARBOXYLIC ACID TRANSPORTER 4 (MCT4) MODULATORS AND USES THEREOF” (Teon Therapeutics, Inc., priority 2020, published 2023).

Assays:
MCT4 = biological target: T1, MCT4 (Homo sapiens, UniProt O15427); experiment: MCT4 transport assay (L-lactate influx, BCECF-AM intracellular pH); format: cell-based; conditions: MDA-MB-231 cells expressing exclusively MCT4
T1 construct: MDA-MB-231 cells—a triple negative human breast cancer cell line expressing exclusively MCT4 (confirmed by Western blotting); host or cells: MDA-MB-231
T1 sequence (O15427 2-465 limits assumed): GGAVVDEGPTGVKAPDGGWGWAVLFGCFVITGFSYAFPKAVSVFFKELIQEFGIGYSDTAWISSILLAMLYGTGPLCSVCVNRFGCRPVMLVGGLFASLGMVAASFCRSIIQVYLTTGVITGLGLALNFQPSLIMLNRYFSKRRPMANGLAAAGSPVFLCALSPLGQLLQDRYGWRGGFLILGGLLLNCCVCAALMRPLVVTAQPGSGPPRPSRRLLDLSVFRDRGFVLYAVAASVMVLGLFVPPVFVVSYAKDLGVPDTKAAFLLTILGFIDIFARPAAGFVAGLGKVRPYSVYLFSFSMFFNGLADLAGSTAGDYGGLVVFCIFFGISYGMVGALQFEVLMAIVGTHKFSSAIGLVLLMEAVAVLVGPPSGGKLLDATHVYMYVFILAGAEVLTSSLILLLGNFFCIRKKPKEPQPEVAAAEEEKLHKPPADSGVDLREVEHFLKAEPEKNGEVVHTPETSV
Procedure: (§1) The compounds' efficacy in both assays was determined by calculating their IC50 value (the concentration of test compound that inhibited 50% of biological activity).
(§2) MCT4 is predominantly involved in cellular efflux of lactate from the cell, preventing intracellular acidification. In the MCT4 in vitro transport system described here it was possible to drive influx of lactate in the cells and test the compounds efficacy in preventing this process. MCT1 is involved in influx-efflux of lactate, and because it is closely related to MCT4, it is a major selectivity target for MCT4 inhibitor. The MCT1 in vitro transport system described here measured the influx of lactate in the cells and ability of test compounds in preventing this process.
(§3) Tyrode's Solution pH7.4 (NaCl 119 mM; KC1 5 mM; HEPES pH7.4 25 mM; CaCl2 2 mM; MgCl2 2 mM; Glucose 6 g/L)
(§4) The following assay was performed to assess MCT4 (MDA-MB-231 cell line) or MCT1 (BT-20 cell line) activity by monitoring the intracellular pH change that accompanies lactate/proton transport using the pH-sensitive fluorescent dye BCECF-AM.
(§5) Compound preparation: The compounds were serially diluted in 100% DMSO 1:3 for 8 pts and transferred (500 nl) to a 96-well plate by Echo.
(§6) Cell preparation: Cells were briefly rinsed with 10 ml of PBS solution to remove all traces of serum, trypsinized (0.05% Trypsin-EDTA) at 25° C. for 2-3 minutes and washed twice with Tyrode's solution. The cell viability and concentration were determined using Vi-Cell. Cells were resuspended in Tyrode's solution.
(§7) Cells were loaded with the pH sensitive dye BCECF-AM (5 uM final concentration from the 30 mM DMSO stock solution) at 37° C. for 30 minutes before being washed twice to remove excess dye and resuspended to 2 million/ml cells in Tyrode's solution. Cells were seeded into a 96-well plate (200,000 cells/well) directly onto the test compound or a reference compound for 10 minutes at 37° C. Following incubation with test compounds, 25 ul of 30 mM Sodium-L-lactate was added. This addition was performed on the FlexStation III as a part of a real-time kinetic protocol. The ratio of cellular fluorescence at 535 nm after excitation at 490 nm/440 nm was measured over time for baseline (pre-lactate addition) and post-lactate addition for 60 sec with or without compounds present. Inhibitory concentration response curves were generated for compounds and their IC50 values calculated.

MCT1 = biological target: T2, MCT1 (Homo sapiens, UniProt P53985); experiment: MCT1 transport assay (L-lactate influx, BCECF-AM intracellular pH); format: cell-based; conditions: BT-20 cells expressing exclusively MCT1
T2 construct: BT-20 cells—a triple negative human breast cancer cell line expressing exclusively MCT1 (confirmed by Western blotting); host or cells: BT-20
T2 sequence (P53985 1-500): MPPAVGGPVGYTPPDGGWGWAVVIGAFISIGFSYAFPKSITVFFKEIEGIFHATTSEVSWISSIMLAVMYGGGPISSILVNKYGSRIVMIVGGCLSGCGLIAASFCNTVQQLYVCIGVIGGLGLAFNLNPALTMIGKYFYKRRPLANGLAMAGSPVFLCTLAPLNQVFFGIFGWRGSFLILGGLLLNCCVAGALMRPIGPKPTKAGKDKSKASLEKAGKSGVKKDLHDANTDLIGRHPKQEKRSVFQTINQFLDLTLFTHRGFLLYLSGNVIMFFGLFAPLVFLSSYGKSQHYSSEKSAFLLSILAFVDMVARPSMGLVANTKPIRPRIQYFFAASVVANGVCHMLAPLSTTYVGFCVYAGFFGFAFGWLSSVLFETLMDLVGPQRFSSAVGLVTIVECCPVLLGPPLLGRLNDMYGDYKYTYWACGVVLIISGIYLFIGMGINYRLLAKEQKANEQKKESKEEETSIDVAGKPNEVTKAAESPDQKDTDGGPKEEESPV
T2 sequence (P35613 140-385 partner limits assumed): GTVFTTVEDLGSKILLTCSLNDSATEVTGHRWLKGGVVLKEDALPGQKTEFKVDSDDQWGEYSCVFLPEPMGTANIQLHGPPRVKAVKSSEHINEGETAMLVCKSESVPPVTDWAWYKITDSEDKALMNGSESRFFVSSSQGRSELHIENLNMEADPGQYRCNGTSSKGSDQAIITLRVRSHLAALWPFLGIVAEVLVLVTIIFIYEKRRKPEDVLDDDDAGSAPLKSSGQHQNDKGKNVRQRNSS
Text: The following in vitro MCT4 and MCT1 transport assays were used to measure the effect of the compounds on L-lactate influx into two different cell lines: • a) MDA-MB-231 cells—a triple negative human breast cancer cell line expressing exclusively MCT4 (confirmed by Western blotting) was used for the MCT4 transport assay, • b) BT-20 cells—a triple negative human breast cancer cell line expressing exclusively MCT1 (confirmed by Western blotting) was used for the
as §1, §2
BT-20 (ATCC); Media: EMEM+10% FBS+1% PS
as §3, §4, §5, §6, §7

Question: With Cc1nc2nc(C)c(O[C@@H]3CCN(c4cnc(C56CC(C(=O)N7CCOCC7)(C5)C6)nc4)C3)c(C)n2n1 [Compound 26, (R)-morpholino(3-(5-(3-((2,5,7-trimethyl-[1,2,4]triazolo[1,5-a]pyrimidin-6-yl)oxy)pyrrolidin-1-yl)pyrimidin-2-yl)bicyclo[1.1.1]pentan-1-yl)methanone] as the compound, how does the IC50 (MCT4) read?
Answer: The IC50 was 100 to 499 nM.

Question: And the IC50 (MCT1)?
Answer: Its IC50 is over 1000 nM.

Question: Which IC50 (MCT4) does the source give for Cc1nc2nc(C)c(C)n2c(C)c1O[C@@H]1CCN(c2ccc(-c3ccc(CN4CCOCC4)nn3)cc2)C1 [Compound 3, (R)-4-((6-(4-(3-((2,3,5,7-tetramethylimidazo[1,2-a]pyrimidin-6-yl)oxy)pyrrolidin-1-yl)phenyl)pyridazin-3-yl)methyl)morpholine] here?
Answer: The IC50 was over 1000 nM.

Question: And the IC50 (MCT1)?
Answer: The IC50 was over 1000 nM.

Question: With Cc1nc2nc(C)c(O[C@@H]3CCN(c4ccc(-c5ccc(CN6CC(S(C)(=O)=O)C6)nn5)cc4)C3)c(C)n2n1 [Compound 10, (R)-2,5,7-trimethyl-6-((1-(4-(6-((3-(methylsulfonyl)azetidin-1-yl)methyl)pyridazin-3-yl)phenyl)pyrrolidin-3-yl)oxy)-[1,2,4]triazolo[1,5-a]pyrimidine] as the compound, how does the IC50 (MCT4) read?
Answer: Its IC50 is under 100 nM.

Question: And the IC50 (MCT1)?
Answer: The IC50 was over 1000 nM.

Question: Cc1nc2nc(C)c(O[C@@H]3CCN(c4ccc(-c5ccc(CN6CC(C(N)=O)C6)nn5)cc4)C3)c(C)n2n1 [Compound 11, (R)-1-((6-(4-(3-((2,5,7-trimethyl-[1,2,4]triazolo[1,5-a]pyrimidin-6-yl)oxy)pyrrolidin-1-yl)phenyl)pyridazin-3-yl)methyl)azetidine-3-carboxamide] was tested. Which IC50 (MCT4) did it give?
Answer: The IC50 was 100 to 499 nM.

Question: What about the IC50 (MCT1) of the same compound?
Answer: The IC50 was over 1000 nM.

Question: For Cc1nc2nc(C)c(O[C@@H]3CCN(c4ccc(-c5ccc(CN6CC(C(=O)N(C)C)C6)nn5)cc4)C3)c(C)n2n1 [Compound 12, (R)-N,N-dimethyl-1-((6-(4-(3-((2,5,7-trimethyl-[1,2,4]triazolo[1,5-a]pyrimidin-6-yl)oxy)pyrrolidin-1-yl)phenyl)pyridazin-3-yl)methyl)azetidine-3-carboxamide], which IC50 (MCT4) is on record?
Answer: Its IC50 is under 100 nM.

Question: What about the IC50 (MCT1) of the same compound?
Answer: Its IC50 is over 1000 nM.

Question: Cc1nc2nc(C)c(O[C@@H]3CCN(c4cnc(C56CC(CN7CCOCC7)(C5)C6)nc4)C3)c(C)n2n1 [Compound 23, (R)-4-((3-(5-(3-((2,5,7-trimethyl-[1,2,4]triazolo[1,5-a]pyrimidin-6-yl)oxy)pyrrolidin-1-yl)pyrimidin-2-yl)bicyclo[1.1.1]pentan-1-yl)methyl)morpholine] was tested. Which IC50 (MCT4) did it give?
Answer: The IC50 was under 100 nM.

Question: And the IC50 (MCT1)?
Answer: Its IC50 is over 1000 nM.

Question: What does the source list for Cc1nc2nc(C)c(O[C@@H]3CCN(c4cnc(C#CCN5CCOCC5)nc4)C3)c(C)n2n1 [Compound 5, (R)-4-(3-(5-(3-((2,5,7-trimethyl-[1,2,4]triazolo[1,5-a]pyrimidin-6-yl)oxy)pyrrolidin-1-yl)pyrimidin-2-yl)prop-2-yn-1-yl)morpholine]?
Answer: IC50 (MCT4): < 100 nM; IC50 (MCT1): > 1000 nM

Question: With Cc1nc2nc(C)c(O[C@@H]3CCN(c4cnc(C56CC(C(=O)N7CC8(COC8)C7)(C5)C6)nc4)C3)c(C)n2n1 [Compound 24, (R)-(2-oxa-6-azaspiro[3.3]heptan-6-yl)(3-(5-(3-((2,5,7-trimethyl-[1,2,4]triazolo[1,5-a]pyrimidin-6-yl)oxy)pyrrolidin-1-yl)pyrimidin-2-yl)bicyclo[1.1.1]pentan-1-yl)methanone] as the compound, how does the IC50 (MCT4) read?
Answer: The IC50 was over 1000 nM.

Question: And the IC50 (MCT1)?
Answer: The IC50 was over 1000 nM.

Question: For COC1CN(C(=O)c2ccc(-c3ccc(N4CC[C@@H](Oc5c(C)nc6nc(C)nn6c5C)C4)cc3)nn2)C1 [Compound 14, (R)-(3-methoxyazetidin-1-yl)(6-(4-(3-((2,5,7-trimethyl-[1,2,4]triazolo[1,5-a]pyrimidin-6-yl)oxy)pyrrolidin-1-yl)phenyl)pyridazin-3-yl)methanone], which IC50 (MCT4) is on record?
Answer: The IC50 was under 100 nM.

Question: What about the IC50 (MCT1) of the same compound?
Answer: The IC50 was over 1000 nM.

Question: Cc1nc2nc(C)c(O[C@@H]3CCN(c4ccc(-c5ccc(C(=O)N6CCOCC6)nn5)cc4)C3)c(C)n2n1 [Compound 19, (R)-morpholino(6-(4-(3-((2,5,7-trimethyl-[1,2,4]triazolo[1,5-a]pyrimidin-6-yl)oxy)pyrrolidin-1-yl)phenyl)pyridazin-3-yl)methanone] was tested. Which IC50 (MCT4) did it give?
Answer: The IC50 was under 100 nM.

Question: And the IC50 (MCT1)?
Answer: The IC50 was over 1000 nM.

Question: What does the source list for Cc1nc2nc(C)c(O[C@@H]3CCN(c4ccc(-c5ccc(C(=O)N6CC(C(N)=O)C6)nn5)cc4)C3)c(C)n2n1 [Compound 17, (R)-1-(6-(4-(3-((2,5,7-trimethyl-[1,2,4]triazolo[1,5-a]pyrimidin-6-yl)oxy)pyrrolidin-1-yl)phenyl)pyridazine-3-carbonyl)azetidine-3-carboxamide]?
Answer: IC50 (MCT4): 500 to 1000 nM; IC50 (MCT1): > 1000 nM

Question: Which results are given for Cc1cc2nc(C)c(O[C@@H]3CCN(c4ccc(-c5ccc(CN6CCOCC6)nn5)cc4)C3)c(C)n2n1 [Compound 4, (R)-4-((6-(4-(3-((2,5,7-trimethylpyrazolo[1,5-a]pyrimidin-6-yl)oxy)pyrrolidin-1-yl)phenyl)pyridazin-3-yl)methyl)morpholine]?
Answer: IC50 (MCT4): < 100 nM; IC50 (MCT1): > 1000 nM

Question: For COC1CN(C(=O)[C@H]2CC[C@H](c3ccc(N4CC[C@@H](Oc5c(C)nc6nc(C)nn6c5C)C4)cc3)CC2)C1 [Compound 34, (3-methoxyazetidin-1-yl)((1R,4r)-4-(4-((R)-3-((2,5,7-trimethyl-[1,2,4]triazolo[1,5-a]pyrimidin-6-yl)oxy)pyrrolidin-1-yl)phenyl)cyclohexyl)methanone], which IC50 (MCT4) is on record?
Answer: Its IC50 is under 100 nM.

Question: And the IC50 (MCT1)?
Answer: The IC50 was over 1000 nM.

Question: Cc1nc2nc(C)c(O[C@@H]3CCN(c4ccc(-c5ccc(CN6CC7(COC7)C6)nn5)cc4)C3)c(C)n2n1 [Compound 7, (R)-6-((6-(4-(3-((2,5,7-trimethyl-[1,2,4]triazolo[1,5-a]pyrimidin-6-yl)oxy)pyrrolidin-1-yl)phenyl)pyridazin-3-yl)methyl)-2-oxa-6-azaspiro[3.3]heptane] was tested. Which IC50 (MCT4) did it give?
Answer: Its IC50 is under 100 nM.

Question: What about the IC50 (MCT1) of the same compound?
Answer: The IC50 was over 1000 nM.

Question: Cc1nc2nc(C)c(O[C@@H]3CCN(c4ccc(-c5ccc(CN6CCOCC6)nn5)cc4)C3)c(C)n2n1 [Compound 1, (R)-4-((6-(4-(3-((2,5,7-trimethyl-[1,2,4]triazolo[1,5-a]pyrimidin-6-yl)oxy)pyrrolidin-1-yl)phenyl)pyridazin-3-yl)methyl)morpholine] was tested. Which IC50 (MCT1) did it give?
Answer: Its IC50 is over 1000 nM.
